Experimental data as given in patent US12522596B2, “Compounds as GLP-1R agonists” (Terns Pharmaceuticals, Inc., priority 2021, dated 2026).
“And” between values parts separate entries of the source, which are not always exact repeats. Equal values may be shown once. Read-outs that look alike come from different tables or passages of the source. Marks after values point to notes of the source that are not given here.

Assay: Pharmacokinetics in hGLP-1R mice after oral dosing
Type: in vivo, male C57BL/6J hGLP-1R mouse
Description: IPGTT (120 min)—PK bleeding: 40 μL blood samples (all treatment groups) were collected from mice under the jaw at IPGTT-120 min after blood glucose measurement into pre-chilled EDTA-2K tubes. Blood samples were processed for plasma by centrifugation at 4° C., 3200×g for 10 min. 15 μL plasma was stored at −80° C. for PK analysis. From 4 mice in Group 7 of the PD cohort, whole brain was collected after blood is harvested at 120 min post dose, rinsed with saline and patted dry and placed into a pre-weighed tube and stored at −80° C. collected for PK analysis.
PK bleeding group design is described in Table 9.
PK bleeding: 30 μL blood was collected at 0.25, 0.5, 1, 2, 4, and 8 h. Blood samples were processed for plasma by centrifugation at 4° C., 3200×g for 10 min. 12 μL plasma was collected at −80° C. for further analysis. From 3 mice in Group 7 of the PK cohort, whole brain was collected after blood is harvested at 8 hr post dose, rinsed with saline and patted dry and placed into a pre-weighed tube and stored at −80° C. collected for PK analysis.
For plasma: An aliquot of 3 μL sample was protein precipitated with 60 μL internal standard (100 ng/mL Labetalol & 100 ng/ml Dexamethasone & 100 ng/ml Tolbutamide & 100 ng/mL Verapamil & 100 ng/ml Glyburide & 100 ng/ml Celecoxib in ACN) and then the mixture was vortex-mixed for 10 min at 800 rpm and centrifuged for 15 min at 3220×g, 4° C.
The linear/log trapezoidal rule was applied in obtaining the PK parameters. Individual plasma concentration values that were below the lower limit of quantitation (LOQ) were excluded from the PK parameter calculation. The nominal dose levels and nominal sampling times were used in the calculation of all pharmacokinetic parameters.

[1] = hGLP-1R mouse plasma, PO 0.3 mg/kg, individual mice, 0.3 mg/kg
[2] = hGLP-1R mouse plasma, PO 0.3 mg/kg, mean
[3] = hGLP-1R mouse plasma, PO 1 mg/kg, individual mice, 1 mg/kg
[4] = hGLP-1R mouse plasma, PO 1 mg/kg, mean

SMILES: N#Cc1ccc(COc2cccc(C3CCN(Cc4nc5ccc(C(=O)O)cc5n4C[C@@H]4CCO4)CC3)n2)c(F)c1 [Reference Compound A, reference compound]
- increase of exposure with dose (dose proportionality) (hGLP-1R mice, PO, Reference Compound A 0.3-1 mg/kg, Compound 2 0.3-3 mg/kg): approximately dose proportional manner
- Concentration (hGLP-1R mouse plasma collected at 120 min (IPGTT cohort), PO 0.3 mg/kg, individual animals, 0.3 mg/kg): 8.61 ng/mL and 8.10 ng/mL and 5.55 ng/mL and 7.19 ng/mL and 6.60 ng/mL and 6.14 ng/mL
- Concentration (hGLP-1R mouse plasma collected at 120 min (IPGTT cohort), PO 1 mg/kg, individual animals, 1 mg/kg): 29.7 ng/mL and 31.0 ng/mL and 17.9 ng/mL and 14.2 ng/mL and 15.9 ng/mL and 14.9 ng/mL and 26.5 ng/mL
- Concentration (hGLP-1R mouse plasma, PO 0.3 mg/kg, 0.25 h, individual animals, 0.3 mg/kg): 11.2 ng/mL and 16.7 ng/mL and 46.8 ng/mL
- Concentration (hGLP-1R mouse plasma, PO 0.3 mg/kg, 0.5 h, individual animals, 0.3 mg/kg): 17.6 ng/mL and 14.6 ng/mL
- Concentration (hGLP-1R mouse plasma, PO 0.3 mg/kg, 1 h, individual animals, 0.3 mg/kg): 13.4 ng/mL and 23.5 ng/mL and 11.1 ng/mL
- Concentration (hGLP-1R mouse plasma, PO 0.3 mg/kg, 2 h, individual animals, 0.3 mg/kg): 2.43 ng/mL and 4.91 ng/mL and 2.76 ng/mL
- Concentration (hGLP-1R mouse plasma, PO 0.3 mg/kg, 4 h, individual animals, 0.3 mg/kg): BQL
- Concentration (hGLP-1R mouse plasma, PO 0.3 mg/kg, 8 h, individual animals): BQL
- Tlast (hGLP-1R mouse plasma, PO 0.3 mg/kg, individual mice): 2.00 h
- AUC0-inf [1]: 22.9 ng·h/mL and 40.5 ng·h/mL and 19.4 ng·h/mL
- AUC0-last [1]: 21.2 ng·h/mL and 35.4 ng·h/mL and 17.0 ng·h/mL
- AUCExtra [1]: 7.39% and 12.7% and 12.4%
- AUMCExtra [1]: 21.1% and 35.8% and 32.0%
- Cmax [1]: 19.6 ng/mL and 46.8 ng/mL and 14.6 ng/mL
- MRT0-inf [1]: 1.08 h and 1.11 h
- MRT0-last [1]: 0.797 h and 0.861 h
- T1/2 [1]: 0.727* h and 0.602 h
- Tmax [1]: 0.250 h
- AUCExtra [2]: 10.8%
- AUMCExtra [2]: 29.6%
- Tlast [2]: 2.00 h
- Concentration (hGLP-1R mouse plasma, PO 1 mg/kg, 0.25 h, individual animals, 1 mg/kg): 31.9 ng/mL and 31.8 ng/mL
- Concentration (hGLP-1R mouse plasma, PO 1 mg/kg, 0.5 h, individual animals, 1 mg/kg): 40.2 ng/mL and 41.2 ng/mL
- Concentration (hGLP-1R mouse plasma, PO 1 mg/kg, 1 h, individual animals, 1 mg/kg): 48.7 ng/mL and 23.7 ng/mL and 46.0 ng/mL
- Concentration (hGLP-1R mouse plasma, PO 1 mg/kg, 2 h, individual animals, 1 mg/kg): 22.4 ng/mL and 5.72 ng/mL and 15.4 ng/mL
- Concentration (hGLP-1R mouse plasma, PO 1 mg/kg, 4 h, individual animals, 1 mg/kg): BQL and 3.21 ng/mL
- Concentration (hGLP-1R mouse plasma, PO 1 mg/kg, 8 h, individual animals): BQL
- AUC0-inf [3]: 86.4 ng·h/mL and 89.9 ng·h/mL
- AUC0-last [3]: 68.7 ng·h/mL and 86.7 ng·h/mL
- AUCExtra [3]: 3.91% and 20.5% and 3.54%
- AUMCExtra [3]: 13.8% and 58.3% and 18.2%
- Cmax [3]: 40.2 ng/mL and 46.0 ng/mL
- MRT0-inf [3]: 1.45 h and 4.55 h and 2.05 h
- MRT0-last [3]: 2.39 h and 1.74 h
- T1/2 [3]: 0.791 h and 3.42* h and 1.77* h
- Tlast [3]: 4.00 h and 8.00 h (2×)
- Tmax [3]: 1.00 h
- AUCExtra [4]: 9.32%
- AUMCExtra [4]: 30.1%
- AUC(0-t) (male, C57BL/6J hGLP-1R, mouse, plasma, po, 0.3 mg/kg, hGLP-1R mice, total, PO 0.3 mg/kg, read-out: AUClast Mean): 24.5 ng·h/mL
- Cmax (male, C57BL/6J hGLP-1R, mouse, plasma, po, 0.3 mg/kg, hGLP-1R mice, total, PO 0.3 mg/kg, read-out: Cmax Mean): 27 ng/mL
- half-life (male, C57BL/6J hGLP-1R, mouse, plasma, po, 0.3 mg/kg, hGLP-1R mice, total, PO 0.3 mg/kg, read-out: T1/2 (converted)): 0.604 h
- Tmax (male, C57BL/6J hGLP-1R, mouse, plasma, po, 0.3 mg/kg, hGLP-1R mice, total, PO 0.3 mg/kg, read-out: Tmax Median): 0.5 h
- concentration at 120 min (male, C57BL/6J hGLP-1R, mouse, plasma, po, 0.3 mg/kg, hGLP-1R mouse plasma collected at 120 min (IPGTT cohort), PO 0.3 mg/kg, individual animals, read-out: Concentration): 7.91 ng/mL
